Reference: patent US10414721B1, “Inhibitor of endocannabinoid cellular reuptake” (University of Bern, priority 2018, dated 2019)
Entries after “also recorded” stand apart in the source; their conditions may differ.

Experiments:
COX-2 = COX-2 (Homo sapiens, UniProt P35354); assay: COX-2 activity assay; assay type: biochemical
Experimental: FAAH, ABHDs, MAGL and COX-2 activity assays were performed using cell homogenates, human recombinant enzymes and mouse, rat and pig brain homogenates as previously described.

[1] = system: EC efflux and release in U937 cells; assay: EC efflux and release in U937 cells; assay type: cell-based
Experimental: All radioactivity-based AEA and 2-AG uptake and release assays performed in U937, and HMC-1 cells were carried out using two different assay formats as previously reported. AEA and 2-AG uptake assay in Neuro2a and primary mouse cortical neurons were performed with a different method disclosed in Chicca 2017.

C57BL6/N mice = assay: Elevated plus maze (EPM); assay type: in vivo, mouse; conditions: 3 mg/kg
Experimental: WOBE437 was initially assessed in a battery of four individual tests typically associated with CB1 receptor activation in mice (nociception, locomotion, body temperature and cataleptic behavior), collectively referred to as the “tetrad”. Dose-response experiments identified 10 mg/kg as the lowest dose to elicit a moderate but complete tetrad in BALB/c mice upon intraperitoneal (i.p.) administration (FIGS. 3A-D). […] To assess whether the WOBE437-induced effects were CB1 receptor-mediated, mice were pre-treated with the selective antagonist/inverse agonist rimonabant (SR1). […] These experiments provided a proof-of-concept for the mechanism of action of WOBE437 as a novel “indirect CB1 receptor agonist”. In subsequent studies, the effects of WOBE437 in pain, inflammatory and anxiety models were investigated. […] Both effects were reversed by SR1.
WOBE437 and RX-055 were tested in independent laboratories, in different mouse strains and in multiple (behavioral) models for cannabimimetic, analgesic, anti-inflammatory and anxiolytic-effects in wild-type and phenotypical CB1-KO mice as described in Chicca 2017.

[2] = LC-MS/MS quantification of WOBE437 in tissues after i.p. injection; assay type: in vivo, mouse; set-up: highest concentration in brain: unit not given here
Experimental: (§1) In order to investigate whether there was a link between the in vivo pharmacological effects of WOBE437 and the inhibition of EC uptake in vitro, the levels of WOBE437, AEA, 2-AG and related lipids in different tissues were quantified by LC-MS/MS. […] The Cbrain/Cplasma ratio (Kp) of WOBE437 was 0.65 after 5 min, 1.64 after 15 min and reached 1.9 after 30 and 60 min (FIGS. 4A and 4E). The peak concentration of WOBE437 in the brain was 780±267 nM, thus being in line with the bioactive concentrations determined in cellular assays. […] Only at 15 min post-injection, WOBE437 prevented the moderate increase of 2-AG induced by DMSO (FIG. 4C). […] On the contrary, 2-AG levels increased 1.7-fold compared to vehicle at 1 h post-injection (FIG. 4G). […] Repeated administrations of WOBE437 led to a significant 3-fold increase of corticosterone in the brain, which mirrors the changes observed in plasma (FIG. 4H). In peripheral organs, WOBE437 reached peak concentrations of 5-20 nmol/g tissue, without any signs of accumulation over 7 days. […] However, EC concentrations were not affected by repeated administrations of WOBE437 in peripheral tissues. Again, corticosterone levels were increased in spleen, liver and kidney.
(§2) WOBE437, AEA, 2-AG, other lipids and hormones were quantified by LC-MS/MS in different biological matrices (cells, human whole blood, rodent tissues) as reported in Chicca 2017.

C57BL6/J mice = assay: LC-MS/MS quantification of endocannabinoids, lipids and corticosterone after i.p. injection; assay type: in vivo, mouse
Experimental: as §1, §2

[3] = Microsomal clearance, mouse liver microsomes; assay type: in vitro ADME
Experimental: Human or mice microsome clearance experiment were carried out as according to a previously describe protocol. Briefly, microsome preparation (0.5 mg/mL) plus cofactor NADPH solution was incubated with 1 μM of WOBE437 in 96-well plates at 37° C. After 1, 3, 6, 9, 15, 25, 35 and 45 min, 40 μL of the preparation was transferred and quenched with 3:1 (v/v) acetonitrile containing internal standards. Samples were then cooled and centrifuged before analysis by LC-MS/MS. Log peak area ratios (test compound peak area/internal standard peak area) are plotted against incubation time using a linear fit. The calculated slope is used to determine the intrinsic clearance. Data are obtained from single experiments measured with multiple time-points.

[4] = Hot plate test after oral administration; assay type: in vivo, mouse; conditions: male, BALB/c, mouse, in vivo; from effective doses 50 mg/kg p.o. vs 10 mg/kg i.p.; read-out: overall bioavailability compared to the i.p. administration route
Experimental: (§3) Acute pain was evaluated 1 h after gavage administration of WOBE437, at 10, 25, 50 and 100 mg/kg in BALB/c mice. The test was performed using a clean 54-56° C. hot plate (Thermo Scientific, USA) with a Plexiglas cylinder. The latency to show the first nociceptive response (paw lick or foot shake) was measured. In order to evaluate CB1 receptor antagonism, 5 mg/kg of rimonabant (Pharmasery AG, Switzerland) was injected intraperitoneally (i.p.) (20 μL, in DMSO) 30 min before WOBE437 administration.

BALB/c male mice = assay: Hot plate test after oral administration; assay type: in vivo, mouse
Experimental: as §3

BALB/c mice = assay: Open field test in monoarthritic mice; assay type: in vivo, mouse
Experimental: Potential motor changes were evaluated in an open field box (40×40×30 cm, Plexiglas). The mice were individually placed in the center and allowed to move freely for 5 min. The locomotion activity was recorded with the OpenFieldTest© and traveled distance was evaluated automatically. After every experiment, the box was cleaned with 70% ethanol to remove odors.

[5] = 7 days of daily treatment, 10 mg/kg i.p.

COX-2, sequence (P35354 18-604): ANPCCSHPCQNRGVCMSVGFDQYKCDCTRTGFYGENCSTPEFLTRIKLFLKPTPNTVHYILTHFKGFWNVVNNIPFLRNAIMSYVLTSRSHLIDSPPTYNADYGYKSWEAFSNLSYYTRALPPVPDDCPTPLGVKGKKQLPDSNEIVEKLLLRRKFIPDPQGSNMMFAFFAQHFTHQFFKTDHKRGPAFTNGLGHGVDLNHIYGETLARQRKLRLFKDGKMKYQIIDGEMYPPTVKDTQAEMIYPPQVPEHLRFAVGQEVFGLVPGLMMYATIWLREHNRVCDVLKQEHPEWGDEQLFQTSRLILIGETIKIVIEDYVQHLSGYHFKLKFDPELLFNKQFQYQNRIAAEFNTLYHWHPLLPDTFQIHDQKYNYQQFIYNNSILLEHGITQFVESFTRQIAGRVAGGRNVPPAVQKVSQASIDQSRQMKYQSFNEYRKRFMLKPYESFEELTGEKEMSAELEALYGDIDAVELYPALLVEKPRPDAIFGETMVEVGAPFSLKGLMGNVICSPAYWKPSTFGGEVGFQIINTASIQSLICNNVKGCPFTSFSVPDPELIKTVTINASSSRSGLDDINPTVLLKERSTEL

## CCCCCCC/C=C/C=C/C(=O)NCCc1ccc(OC)c(OC)c1 [WOBE437, (2E,4E)-N-[2-(3,4-Dimethoxyphenyl)ethyl]dodeca-2,4-dienamide]
COX-2
  inhibition of COX-2 activity: did not inhibit
[1]
  inhibition of EC release: 20%
[1]; cells stimulated with ATP, thapsigargin and ionomycin
  effect on EC release: blocked the release of both ECs
[1]; pre-loaded U937 cells
  effect on AEA efflux: inhibited the efflux of AEA
C57BL6/N mice
  anxiolytic effect after SR1: completely blocked by SR1
C57BL6/N mice; vs vehicle
  number of entries and time spent in open arms: significantly increased
[2]; 10 mg/kg i.p.
  peak concentration in the brain: 780 ± 267 nM
  peak concentrations in peripheral organs: 5-20 nmol/g tissue
  peak plasma concentration: 492±103
  time of highest brain concentration: 30 min
  time of peak plasma concentration: 15 min
[2]; 10 mg/kg i.p., 1 h
  brain concentration: 652±165 pmol/g brain
[2]; 10 mg/kg i.p., after 15 min
  Cbrain/Cplasma ratio (Kp): > 1
[2]; 10 mg/kg i.p., after 30 min
  highest concentration in brain: 919±314
[2]; mouse, brain, ip, 1 h after a single injection, 10 mg/kg i.p., read-out: estimated brain concentration
  concentration at 1 h: 555 nM
[2]; mouse, brain, ip, after 7 days of treatment, 10 mg/kg i.p. daily, read-out: estimated brain concentration
  concentration at 7 days: 926 nM
[2]; mouse, brain/plasma, ip, 10 mg/kg, 10 mg/kg i.p., after 30 and 60 min, read-out: Cbrain/Cplasma ratio (Kp)
  Kp at 1 h: 1.9
[2]; mouse, brain/plasma, ip, 10 mg/kg, 10 mg/kg i.p., after 5 min, read-out: Cbrain/Cplasma ratio (Kp)
  Kp at 5 min: 0.65
[2]; mouse, brain/plasma, ip, 10 mg/kg, 10 mg/kg i.p., after 15 min, read-out: Cbrain/Cplasma ratio (Kp)
  Kp at 0.25 h: 1.64
[2]; mouse, plasma, ip, 10 mg/kg i.p.
  half-life: 3.38 h
C57BL6/J mice; [5]
  brain 2-AG level increase compared to vehicle (DMSO): 1.5 fold
  brain AEA level increase compared to vehicle (DMSO): 1.5 fold
C57BL6/J mice; after 7 days
  circulating concentration of corticosterone: doubled
C57BL6/J mice; brain, plasma and peripheral organs
  concentrations of other lipids (NAEs, AA, prostaglandins and progesterone): not significantly altered
C57BL6/J mice; repeated administration
  increase of corticosterone levels in brain, plasma and peripheral organs: 2-4 fold
C57BL6/J mice; repeated administrations
  increase of corticosterone in the brain: 3 fold
C57BL6/J mice; repeated administrations, 10 mg/kg
  EC concentrations in peripheral tissues: not affected; also recorded: did not significantly alter
C57BL6/J mice; single and repeated injection(s)
  AEA and 2-AG levels in plasma: not significantly affected
C57BL6/J mice; single injection
  2-AG levels in peripheral organs: not altered in the spleen, but dropped significantly after 60-360 min in liver and kidney
  AEA level in peripheral organs: did not change in liver, whereas in kidney and spleen it moderately diminished
  brain AEA levels compared to basal level: did not change
C57BL6/J mice; single injection 10 mg/kg i.p., 1 h post-injection
  brain 2-AG level increase compared to vehicle: 1.7 fold
[3]; 1 μM, preliminary
  clearance: 0.174 mL/min/kg
[3]; mouse, mice, from microsomal clearance, read-out: estimated maximal bioavailability
  bioavailability at 1 μM: 17%
[4]
  bioavailability: 20%
BALB/c male mice; 50 mg/kg p.o.
  increase of pain threshold vs vehicle: 61.7%
BALB/c male mice; 50 mg/kg p.o., vehicle 5.8±0.9 s
  pain threshold (latency): 9.4 ± 1.9 s
BALB/c male mice; 100 mg/kg p.o.
  pain threshold (latency): 11.7 ± 2.6 s
BALB/c male mice; Mus musculus, po, hot plate, read-out: estimated effective dose (ED50)
  ED50: 42.5 ± 3.9 mg/kg
BALB/c male mice; p.o., hot plate
  minimum dose to significantly increase pain threshold: 50 mg/kg
BALB/c male mice; rimonabant 5 mg/kg i.p.
  antinociceptive effect after rimonabant pre-treatment: completely abolished
BALB/c mice
  spontaneous motor activity: without significant observable changes
other
  melting point: 112 °C
